From patent publication US20260284051A1, “METHIONINE ADENOSYLTRANSFERASE 2A (MAT2A) INHIBITOR COMBINATIONS AND USES THEREOF” (INSILICO MEDICINE IP LIMITED, priority 2023, published 2026)

Molecular target: MAT2A (Homo sapiens, UniProt P31153)
Assay: MAT2A Biochemical Assay
Settings: read-out: MAT2A enzymatic IC50
Procedure: Example A: MAT2A Biochemical Assay
Compounds described herein were tested as follows:
• (1). Prepared 1×Assay buffer. • (2). Preparation of compound concentration gradient: the compounds test condition were […], 3-fold dilution, 10 doses, singlet or duplicate. 100x concentration compounds were prepared in 384-well plate. Then used Echo 550 to transfer 250 nl to a 384-reaction plate for later use. Added 250 nl of 100% DMSO to the negative and positive control wells. • (3). Prepared 1.67× final concentration enzyme solution with 1×Assay buffer. • (4). Added 15 μl of 1.67× Enzyme solution to the compound wells and positive control wells; added 15 μl of 1×Assay buffer to the negative control wells. • (5). Centrifuged at 1000 rpm for 30 seconds and incubate for 15 minutes. • (6). Prepared 2.5× final concentration Substrate mix solution with 1×Assay buffer. • (7). Added 10 μl of 2.5× final concentration Substrate mix solution to start the reaction. • (8). Centrifuged at 1000 rpm for 30 seconds and incubate for 150 minutes. • (9). Added […] Biomol Green to stop the reaction, centrifuge at 1000 rpm for 30 seconds and incubate for 15 minutes. read O.D.620, process data.
• (1) Using GraphPad Prism 5.
[formula] • (3) Max signal was obtained from the positive control wells. • (4) Min signal was obtained from the negative control wells.

Sequence of MAT2A (P31153 whole entry, species assumed): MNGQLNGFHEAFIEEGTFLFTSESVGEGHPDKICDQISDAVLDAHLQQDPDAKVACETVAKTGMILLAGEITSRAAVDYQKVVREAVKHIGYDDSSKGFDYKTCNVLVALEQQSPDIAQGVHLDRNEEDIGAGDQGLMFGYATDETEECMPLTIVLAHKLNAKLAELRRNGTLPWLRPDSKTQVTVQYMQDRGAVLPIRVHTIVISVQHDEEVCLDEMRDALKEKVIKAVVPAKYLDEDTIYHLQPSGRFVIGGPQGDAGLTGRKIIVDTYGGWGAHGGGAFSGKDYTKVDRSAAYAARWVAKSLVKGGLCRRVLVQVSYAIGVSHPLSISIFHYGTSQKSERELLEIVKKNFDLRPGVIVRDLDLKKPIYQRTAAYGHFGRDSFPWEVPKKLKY

IC50: < 50 nM
SMILES: C#CCNc1nc(=O)n(-c2cccnc2C)c2cc(C(F)(F)F)cc(OC)c12 [Example 36, 5-methoxy-1-(2-methylpyridin-3-yl)-4-(prop-2-yn-1-ylamino)-7-(trifluoromethyl)quinazolin-2(1H)-one]
